Columns and labels:
Details in all cases: 72 h
KCL-22 = assay: cell viability (% survival relative to DMSO control, bortezomib = 0%); higher = less cytotoxic
Procedure, shortened: (§1)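 Fifteen myeloid leukaemia cell lines (10 AML, 5 CML) were seeded at a density titrated to the linear growth range into 384-well plates pre-printed with compounds at 1, 10, 100, 1000 or 10000 nM in duplicate. Plates were incubated for 72 h at 37 °C with 5% CO2. Viability was then read by CellTiter-Glo luminescence. Each value is percent survival averaged over the duplicates, with vehicle set to 100% and a 10 µM positive control to 0%.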

MV4-11 [1] = assay: as above
Procedure, shortened: as §1

BV-173 = assay: as above
Procedure, shortened: as §1

SHI-1 = assay: as above
Procedure, shortened: as §1

HL-60 [2] = assay: as above
Procedure, shortened: as §1

KG-1 = assay: as above
Procedure, shortened: as §1

NOMO-1 [3] = assay: as above
Procedure, shortened: as §1

LAMA-84 = assay: as above
Procedure, shortened: as §1

Mono-Mac-6 [4] = assay: as above
Procedure, shortened: as §1

THP-1 = assay: as above
Procedure, shortened: as §1

K-562 [5] = assay: as above
Procedure, shortened: as §1

HEL = assay: as above
Procedure, shortened: as §1

KU-812 [6] = assay: as above
Procedure, shortened: as §1

MOLM-13 = assay: as above
Procedure, shortened: as §1

ML-2 = assay: as above
Procedure, shortened: as §1

HL-60 [7] = assay: cell viability (% survival relative to DMSO control); higher = less cytotoxic
Procedure, shortened: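 For each screen, HL-60 cells in RPMI 1640 with 10% FBS carried either DMSO or 100 nM of one of three metabolic inhibitors while the full library was applied at five tenfold concentrations, 1–10,000 nM, in duplicate. Plates were 384-well and were kept 72 h at 37 °C, 5% CO2. Viability, measured by CellTiter-Glo, was normalised to wells with DMSO and with 10 μM proteasome inhibitor. Where area under the curve appears, it was fitted by four-parameter log-logistic models in drc and PharmacoGx.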

MV4-11 [8] = system: MV4-11
Procedure, shortened: (§2)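 Seeded in RPMI 1640 at densities within the linear growth range, fifteen myeloid leukaemia cell lines were dispensed into 384-well plates with acoustically pre-printed compounds spanning five tenfold doses from 1 to 10,000 nM, in duplicate. The plates were kept for 72 h at 37 °C in 5% CO2 before luminescent ATP viability was measured and normalised to vehicle and to a positive control at 10 µM. Curves were fitted with a four-parameter log-logistic model. The IC50 was taken from those curves.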

NOMO-1 [9] = system: NOMO-1
Procedure, shortened: as §2

Mono-Mac-6 [10] = system: Mono-Mac-6
Procedure, shortened: as §2

K-562 [11] = system: K-562
Procedure, shortened: as §2

KU-812 [12] = system: KU-812
Procedure, shortened: as §2

CCOC(=O)c1sc(NC(=O)c2ccco2)c(SC#N)c1C [CBR-5884]
cell viability [%]
Details | 1 nM | 10 nM | 100 nM | 1000 nM | 10000 nM
BV-173 | 100 | 111 | 87.5 | 105 | 80
HEL | 102 | 102 | 98.2 | 104 | 86.5
HL-60 [2] | 103 | 102 | 89.5 | 92.7 | 59.4
K-562 [5] | 89.9 | 105 | 92.7 | 88.9 | 83.7
KCL-22 | 110 | 85.5 | 107 | 105 | 94.6
KG-1 | 90.5 | 83.3 | 103 | 94.3 | 74.9
KU-812 [6] | 93.5 | 101 | 109 | 94.8 | 88.3
LAMA-84 | 89.2 | 102 | 103 | 102 | 99.1
ML-2 | 94.5 | 97.2 | 104 | 99.3 | 60.5
MOLM-13 | 97.2 | 82.9 | 112 | 97.3 | 81.4
MV4-11 [1] | 79.9 | 96.3 | 116 | 88.3 | 51.1
Mono-Mac-6 [4] | 94.9 | 111 | 102 | 103 | 91.1
NOMO-1 [3] | 99.8 | 104 | 97.4 | 100 | 94.5
SHI-1 | 90.4 | 87.1 | 102 | 103 | 81.3
THP-1 | 102 | 97.1 | 98.1 | 94.4 | 100

cell viability [%], HL-60 [7]
Details | 0.001 µM | 0.01 µM | 0.1 µM | 1 µM | 10 µM
co-treatment: AZD3965 100 nM | 107.6 | 103 | 93.2 | 106 | 102
co-treatment: DMSO vehicle | 104 | 102 | 98.9 | 105 | 100.8
co-treatment: GSK2194069 100 nM | 97.6 | 98.31 | 90.6 | 98.2 | 103
co-treatment: pictilisib 100 nM | 107 | 101 | 81.8 | 101 | 88

Details | IC50 (cell viability) [nM]
K-562 [11] | > 10000
KU-812 [12] | > 10000
MV4-11 [8] | 7250
Mono-Mac-6 [10] | > 10000
NOMO-1 [9] | > 10000

O=C1C(SCCO)=C(SCCO)C(=O)c2ccccc21
cell viability [%]
Details | 1 nM | 10 nM | 100 nM | 1000 nM | 10000 nM
BV-173 | 107 | 106 | 98.5 | 0.154 | -0.205
HEL | 110 | 107 | 103 | 69.8 | -0.489
HL-60 [2] | 123 | 115 | 122 | 101 | -0.447
K-562 [5] | 98.9 | 98.8 | 112 | 20.6 | 0.0893
KCL-22 | 112 | 101 | 89.9 | 38.3 | -0.332
KG-1 | 107 | 90.2 | 94.9 | 20.2 | -0.961
KU-812 [6] | 104 | 89.1 | 99.2 | 20.9 | -0.694
LAMA-84 | 105 | 95.6 | 101 | 36.1 | 1.35
ML-2 | 101 | 96.2 | 95.8 | 2.66 | -0.682
MOLM-13 | 104 | 101 | 107 | 5.3 | -0.664
MV4-11 [1] | 96 | 113 | 83.9 | 0.103 | -0.335
Mono-Mac-6 [4] | 111 | 102 | 104 | 30 | -0.648
NOMO-1 [3] | 105 | 99.7 | 100 | 7.84 | -0.348
SHI-1 | 99.5 | 103 | 95.4 | 16.8 | -0.637
THP-1 | 100 | 98.2 | 106 | 10.8 | -1.37

cell viability [%], HL-60 [7]
Details | 0.001 µM | 0.01 µM | 0.1 µM | 1 µM | 10 µM
co-treatment: AZD3965 100 nM | 102 | 105 | 104 | 95.3 | -0.491
co-treatment: DMSO vehicle | 101 | 104.7 | 99.1 | 102 | 7.09
co-treatment: GSK2194069 100 nM | 99.5 | 98.79 | 97.3 | 102 | 1.87
co-treatment: pictilisib 100 nM | 107.4 | 104 | 95.6 | 75.46 | -0.39

Details | IC50 (cell viability) [nM]
K-562 [11] | 549
KU-812 [12] | 530
MV4-11 [8] | 219
Mono-Mac-6 [10] | 664
NOMO-1 [9] | 370

CC(C)(C)c1ccc(S(=O)(=O)NCc2ccc(C(=O)Nc3cccnc3)cc2)cc1 [STF-31]
cell viability [%]
Details | 1 nM | 10 nM | 100 nM | 1000 nM | 10000 nM
BV-173 | 96.3 | 111 | 3.51 | 0.776 | 0.807
HEL | 107 | 119 | 35.3 | 3.71 | 2.64
HL-60 [2] | 102 | 169 | 65.7 | -0.0172 | 0.631
K-562 [5] | 109 | 103 | 82.2 | 11.9 | 3.63
KCL-22 | 85 | 80 | 98.4 | 9.33 | 1.6
KG-1 | 147 | 137 | 72.6 | 19.7 | 18.4
KU-812 [6] | 91.8 | 107 | 58.6 | 14.2 | 7.98
LAMA-84 | 97.5 | 94.6 | 68.8 | 6.82 | 2.61
ML-2 | 95.8 | 101 | 83.5 | 3.23 | 0.455
MOLM-13 | 111 | 154 | 96.6 | 109 | 0.127
MV4-11 [1] | 98 | 139 | 3.11 | 0.253 | 0.177
Mono-Mac-6 [4] | 107 | 114 | 105 | 36.9 | 31
NOMO-1 [3] | 102 | 95.7 | 40.1 | 6.08 | 0.284
SHI-1 | 89.7 | 118 | 108 | 101 | 57.4
THP-1 | 101 | 95.9 | 101 | 103 | 110

cell viability [%], HL-60 [7]
Details | 0.001 µM | 0.01 µM | 0.1 µM | 1 µM | 10 µM
co-treatment: AZD3965 100 nM | 104 | 95.82 | 94.3 | 20.9 | 2.06
co-treatment: DMSO vehicle | 104 | 94.1 | 108 | 10.1 | 4.63
co-treatment: GSK2194069 100 nM | 101 | 98.62 | 99.7 | 6.72 | 2.51
co-treatment: pictilisib 100 nM | 100 | 93.2 | 105 | 18 | 3.08

Details | IC50 (cell viability) [nM]
K-562 [11] | 242
KU-812 [12] | 109
MV4-11 [8] | 45.1
Mono-Mac-6 [10] | 548
NOMO-1 [9] | 74
